# Measurements published in patent publication EP0272791A2 (priority 1986, dated 1988).
# Values joined by “and” are separate entries in the source; they are usually repeats but may differ in a detail not shown here. Equal values may be shown once. “Also recorded” adds a separate entry of the source. Read-outs that look alike come from different tables or passages of the source.
# What was measured:
# multiple myeloma = assay: differential staining cytotoxicity assay (DiSC), fresh tumor specimens; details: metachronous assays, no intervening therapy, patient MM-B, two dates
# Small Cell Lung Cancer = assay: as above; format: cell-based, human; details: active = < 30% cell survival; concentrations of Table 1
# [1] = tested on: Non-Small Cell Lung Cancer; assay: as above; format: cell-based, human; details: active = < 30% cell survival; concentrations of Table 1
# CLL [2] = details: for Treated patients, Sensitive / Untreated patients, Sensitive: sensitive: < 30% cell survival
# Assorted solid tumors = assay: differential staining cytotoxicity assay (DiSC), fresh tumor specimens; format: cell-based, human; details: for % of all specimens tested which were "sensitive" in vitro (< 30% cell survival): dexamethasone 0.4 μg/ml, cytarabine […], continuous 4-day exposure
# ANLL = assay: as above; format: cell-based, human; details: for % of all specimens tested which were "sensitive" in vitro (< 30% cell survival): dexamethasone 0.4, cytarabine 3.3, vincristine […] continuous 4-day exposure, mechlorethamine 3.5, doxorubicin 1.67 μg/ml 1-hour exposure
# tumor cell specimens = assay: differential staining cytotoxicity assay (DiSC), general statements on drug exposure; format: cell-based, human; details: for activity in the assay at a 1-hour exposure (in words): must be tested at a continuous exposure
# ALL = details: for Treated patients, Resistant / Untreated patients, Resistant / Treated patients, Sensitive / Untreated patients, Sensitive: No. of patients; for Treated patients, Resistant / Untreated patients, Resistant: resistant: > 30% cell survival; for Treated patients, Sensitive / Untreated patients, Sensitive: sensitive: < 30% cell survival; for in vitro activity (in words): active = < 30% cell survival, concentrations of Table 1; for % of all specimens tested which were "sensitive" in vitro (< 30% cell survival): dexamethasone 0.4, cytarabine 3.3, vincristine […] continuous 4-day exposure, mechlorethamine 3.5, doxorubicin 1.67 μg/ml 1-hour exposure
# CML-blast crisis = assay: differential staining cytotoxicity assay (DiSC), fresh tumor specimens; details: patient CML-BC, 11/09/82 before and 12/14/82 after V + P
# [3] = tested on: non-Hodgkin's lymphoma, multiple myeloma, and blast crisis CML; details: data not shown; neoplasms considered together
# CLL [4] = assay: cells; details: Homo sapiens, read-out: average % cell survival in vitro, Vincristine 0.08 µg/ml, continuous exposure; metachronous assays, no intervening therapy
# [5] = active = < 30% cell survival, concentrations of Table 1
# [6] = Cytarabine 1.0 µg/ml, continuous 4-day exposure
# [7] = Dexamethasone 0.4 µg/ml, continuous 4-day exposure
# [8] = Dexamethasone 4.0 µg/ml, continuous 4-day exposure
# [9] = No. of patients, Dexamethasone 0.4 µg/ml, continuous 4-day exposure, resistant: > 30% cell survival
# [10] = No. of patients, Dexamethasone 0.4 µg/ml, continuous 4-day exposure
# [11] = No. of patients, Dexamethasone 4.0 µg/ml, continuous 4-day exposure, resistant: > 30% cell survival
# [12] = No. of patients, Dexamethasone 4.0 µg/ml, continuous 4-day exposure
# [13] = Doxorubicin 1.67 µg/ml, 1-hr exposure
# [14] = cells from relapsed patients compared with untreated patients
# [15] = Vincristine 0.08 µg/ml, continuous 4-day exposure
# [16] = Vincristine 0.08 µg/ml, continuous exposure, metachronous assays, no intervening therapy
smiles,measurement,setting,value
"O=NN(CCCl)C(=O)NCCCl [Carmustine, carmustine]",viability at 11 µg/mL,"multiple myeloma; Homo sapiens, 1 h, read-out: average % cell survival in vitro, Carmustine […], 1 hour exposure",15%
"N.N.[Cl][Pt][Cl] [Cisplatin, cisplatin]",in vitro activity (in words),Small Cell Lung Cancer,high activity
same,in vitro activity (in words),[1],most active agent tested; also recorded: moderate activity
same,in vitro activity (in words),CLL [2]; [5],completely refractory
"Nc1ccn([C@@H]2O[C@H](CO)[C@@H](O)[C@@H]2O)c(=O)n1 [Cytarabine, cytarabine]","% of all specimens tested which were ""sensitive"" in vitro (< 30% cell survival)",Assorted solid tumors,3% (31)
same,in vitro activity (in words),ANLL; [5],active
same,"% of all specimens tested which were ""sensitive"" in vitro (< 30% cell survival)",ANLL,76% (34)
same,activity in the assay at a 1-hour exposure (in words),tumor cell specimens,not active
same,"Treated patients, Resistant",ALL; [6],7
same,"Untreated patients, Resistant",ALL; [6],4
same,"Treated patients, Sensitive",ALL; [6],2
same,"Untreated patients, Sensitive",ALL; [6],6
same,in vitro activity (in words),ALL,active
same,"% of all specimens tested which were ""sensitive"" in vitro (< 30% cell survival)",ALL,68% (19)
same,"resistance in the assay, relapsed (treated) vs untreated patients (in words)",ALL; the higher concentration of cytarabine,significantly more resistant
"C[C@@H]1C[C@H]2[C@@H]3CCC4=CC(=O)C=C[C@]4(C)[C@@]3(F)[C@@H](O)C[C@]2(C)[C@@]1(O)C(=O)CO [Dexamethasone, dexamethasone]",in vitro activity (in words),Assorted solid tumors; [5],not active
same,"% of all specimens tested which were ""sensitive"" in vitro (< 30% cell survival)",Assorted solid tumors,0% (34)
same,"% of all specimens tested which were ""sensitive"" in vitro (< 30% cell survival)",ANLL,7% (41)
same,activity in the assay at a 1-hour exposure (in words),tumor cell specimens,not active
same,"Treated patients, Resistant",ALL; [7],7
same,"Untreated patients, Resistant",ALL; [7],6
same,"Treated patients, Sensitive",ALL; [7],4
same,"Untreated patients, Sensitive",ALL; [7],16
same,"Treated patients, Resistant",ALL; [8],7
same,"Untreated patients, Resistant",ALL; [8],5
same,"Treated patients, Sensitive",ALL; [8],3
same,"Untreated patients, Sensitive",ALL; [8],13
same,in vitro activity (in words),ALL,active
same,"% of all specimens tested which were ""sensitive"" in vitro (< 30% cell survival)",ALL,61% (33)
same,"Treated patients, Resistant",CLL [2]; [9],13
same,"Untreated patients, Resistant",CLL [2]; [9],18
same,"Treated patients, Sensitive",CLL [2]; [10],2
same,"Untreated patients, Sensitive",CLL [2]; [10],10
same,"Treated patients, Resistant",CLL [2]; [11],10
same,"Untreated patients, Resistant",CLL [2]; [11],15
same,"Treated patients, Sensitive",CLL [2]; [12],2
same,"Untreated patients, Sensitive",CLL [2]; [12],10
same,% cell survival,"CML-blast crisis; Dexamethasone 4.0 μg/ml, continuous exposure",68%
same,viability at 4 µg/mL,"CML-blast crisis; Homo sapiens, read-out: % cell survival, Dexamethasone 4.0 μg/ml, continuous exposure",73%
"COc1cccc2c1C(=O)c1c(O)c3c(c(O)c1C2=O)C[C@@](O)(C(=O)CO)C[C@@H]3O[C@H]1C[C@H](N)[C@H](O)[C@H](C)O1 [Doxorubicin, doxorubicin]","% of all specimens tested which were ""sensitive"" in vitro (< 30% cell survival)",ANLL,48% (27)
same,"Treated patients, Resistant",ALL; [13],7
same,"Untreated patients, Resistant",ALL; [13],1
same,"Treated patients, Sensitive",ALL; [13],4
same,"Untreated patients, Sensitive",ALL; [13],10
same,in vitro activity (in words),ALL,somewhat more sensitive than ANLL
same,"resistance in the assay, relapsed (treated) vs untreated patients (in words)",ALL; [14],significantly more resistant
same,"% of all specimens tested which were ""sensitive"" in vitro (< 30% cell survival)",ALL,72% (18)
same,"resistance in vitro, previously treated vs previously untreated patients (in words)",CLL [2]; prior treatment with alkylating agents (usually chlorambucil or cyclophosphamide) with or without prednisone,significantly more resistant
same,"resistance in vitro, previously treated vs previously untreated patients (in words)",[3],significantly more resistant
same,% cell survival,"CML-blast crisis; Doxorubicin 1.6 μg/ml, 1 hour exposure, 60 min",86% and 59%
"N[C@@H](Cc1ccc(N(CCCl)CCCl)cc1)C(=O)O [Melphalan, melphalan]","Treated patients, Resistant",CLL [2],11 and 8
"CC[C@]1(O)C[C@H]2CN(CCc3c([nH]c4ccccc34)[C@@](C(=O)OC)(c3cc4c(cc3OC)N(C=O)[C@H]3[C@@](O)(C(=O)OC)[C@H](OC(C)=O)[C@]5(CC)C=CCN6CC[C@]43[C@@H]65)C2)C1 [Vincristine, vincristine]","% of all specimens tested which were ""sensitive"" in vitro (< 30% cell survival)",ANLL,22% (23)
same,activity in the assay at a 1-hour exposure (in words),tumor cell specimens,not active
same,"Treated patients, Resistant",ALL; [15],10
same,"Untreated patients, Resistant",ALL; [15],6
same,"Treated patients, Sensitive",ALL; [15],1
same,"Untreated patients, Sensitive",ALL; [15],10
same,average % cell survival in vitro,ALL; [16],44% and 71%
same,in vitro activity (in words),ALL,considerably more sensitive
same,"resistance in the assay, relapsed (treated) vs untreated patients (in words)",ALL; [14],significantly more resistant
same,"% of all specimens tested which were ""sensitive"" in vitro (< 30% cell survival)",ALL,56% (25)
same,average % cell survival in vitro,CLL [2]; [16],48%
same,viability at 0.08 µg/mL,CLL [4],46%
same,viability at 0.08 µg/mL,"multiple myeloma; Homo sapiens, read-out: average % cell survival in vitro, Vincristine 0.08 µg/ml, continuous exposure",0%
same,average % cell survival in vitro,"multiple myeloma; Vincristine 0.08 µg/ml, continuous exposure",0%
same,viability at 0.08 µg/mL,"CML-blast crisis; Homo sapiens, read-out: % cell survival, Vincristine 0.08 μg/ml, continuous exposure",69%
same,% cell survival,"CML-blast crisis; Vincristine 0.08 μg/ml, continuous exposure",71%
O=P1(N(CCCl)CCCl)NCCCO1 (centres unmarked) [cyclophosphamide],activity in vitro (in words),tumor cell specimens,not active in vitro
